Experimental data from patent publication US20060020004A1, “Isoxazolidine compounds for treatment of bacterial infections” (Infinity Pharmaceuticals, Inc., priority 2004, published 2006).
Converted amounts (≈) assume the structure as drawn.

Tests used:
[1] = system: Methicillin resistant S. aureus ATCC 33591; experiment: MIC determination, MRSA; assay type: cell-based, Staphylococcus aureus; settings: MRSA ATCC 33591, 24 h; for MIC: Staphylococcus aureus
Experimental: (§1) Susceptibility testing for bacterial cultures is performed according to the National Council for Clinical Laboratory Standards (NCCLS) protocol M100-S12, “Performance Standards for Antimicrobial Susceptibility Testing.” The bacterial strains recommended by NCCLS were obtained from the American Type Culutre Collection (ATCC) (Table) and were maintained on Mueller Hinton (MHA) agar plates plus or minus 3% lysed horse blood (see Table). The bacteria were grown in Cation adjusted Mueller Hinton Broth (CaMHB) for liquid growth and susceptibility testing. S. cerevisiae (yeast) is grown in yeast peptone dextrose (YPD) media.
(§2) All bacterial cultures were grown at 37 degrees Celsius. Fresh colonies of S. aureus and MRSA were inoculated into liquid media and grown overnight and diluted the next day to grow to mid-log (Table 2). E. faecalis and S. pneumonia mid-log cultures were started directly from colony on plates. To attain mid-log growth, cultures were grown to an optical density (OD) at A590 of 0.2-0.8 (see Table 2) and then diluted to proper OD to obtain 5×10^5 cells/mL.
(§3) Diluted bacterial cultures are added to compound plates with compound diluted 2-fold from 100 μg/mL to 0.2 μg/mL final concentration in DMSO. Control antibiotics are also added: vancomycin, linezolid, and penicillin. In 384 well plates, 0.5 μL compound is added followed by addition of 50 μL of culture. DMSO alone is included as a control. Plates incubated at 37 degrees Celsius for 17-24 h.
(§4) Plates with cells mixed with compounds are incubated for 17 h for S. aureus and yeast, 24 h for MRSA, and all Enterococcus and Streptococcus strains. Yeast plates are incubated […].
(§5) Viability is determined by reading plates at A590 to determine optical density of treated and untreated cells and determining growth inhibition relative to controls.

[2] = system: Penicillin-res. S. pneumonia ATCC 700671; experiment: MIC determination, PRSP; assay type: cell-based, Streptococcus pneumonia; settings: ATCC 700671, 24 h; for MIC: Streptococcus pneumoniae
Experimental: as §1, §2, §3, §4, §5

[3] = system: Staphylococcus aureus (Smith) ATCC 19636; experiment: MIC determination, S. aureus; assay type: cell-based; settings: S. aureus ATCC 19636, 17 h; for MIC: Staphylococcus aureus, ATCC19636
Experimental: as §1, §2, §3, §4, §5

| MIC [1] [mg/L] | MIC [3] [mg/L] | MIC [2] [mg/L] | Structure (SMILES) | MIC MRSA [1] | MIC PRSP [2] | MIC S. aureus [3] |
| --- | --- | --- | --- | --- | --- | --- |
| – | – | – | COc1ccc2[nH]cc(CCNC(=O)C3C(CO)C(C(C)O)ON3Cc3ccc(C#Cc4ccc(C)cc4)cc3)c2c1 (centres unmarked) | * (the MIC is >90 μg/mL) | ** (the MIC is 5-90 μg/mL) | ** (the MIC is 5-90 μg/mL) |
| – | – | – | Cc1ccc(C#Cc2ccc(CN3OC(C(C)O)C(CO)C3C(=O)NCCc3c[nH]c4cc(F)ccc34)cc2)cc1 (centres unmarked) | *** (the MIC is less than 5 μg/mL) | ** (the MIC is 5-90 μg/mL) | *** (the MIC is less than 5 μg/mL) |
| < 5 | 5 to 90 (≈ 9.55 to 172 µM) | – | Cc1ccc(C#Cc2ccc(CN3O[C@@H]([C@@H](C)O)[C@@H](CO)[C@H]3CNCCc3c[nH]c4ccccc34)cc2)cc1 | – | – | – |
| < 5 | < 5 | 5 to 90 (≈ 8.85 to 159 µM) | Cc1ccc(C#Cc2ccc(CN3O[C@@H]([C@@H](C)O)[C@@H](CN(C)C)[C@H]3C(=O)NCCc3c[nH]c4ccccc34)cc2)cc1 | – | – | – |
| – | – | – | CC(O)C1ON(Cc2cccc(-c3ccc(C(C)(C)C)cc3)c2)C(C(=O)NCCc2c[nH]c3ccccc23)C1CO (centres unmarked) | *** (the MIC is less than 5 μg/mL) | ** (the MIC is 5-90 μg/mL) | *** (the MIC is less than 5 μg/mL) |
| < 5 | < 5 | – | CCCCCCCCCCCCN1O[C@@H]([C@H](C)O)[C@@H](CO)[C@H]1C(=O)NCCc1c[nH]c2ccccc12 | – | – | – |
| – | – | – | CC(O)C1ON(Cc2cccc(C=Cc3ccc(Cl)cc3)c2)C(C(=O)NCCc2c[nH]c3ccccc23)C1CO (centres unmarked) | *** (the MIC is less than 5 μg/mL) | ** (the MIC is 5-90 μg/mL) | *** (the MIC is less than 5 μg/mL) |
| – | – | – | CC(O)C1ON(Cc2ccc(-c3ccc(Cl)cc3)cc2)C(C(=O)NCCc2c[nH]c3ccccc23)C1CO (centres unmarked) | ** (the MIC is 5-90 μg/mL) | ** (the MIC is 5-90 μg/mL) | ** (the MIC is 5-90 μg/mL) |
| – | – | – | O=C(NCCc1c[nH]c2ccccc12)C1C(CO)C(CO)ON1Cc1ccc(C#Cc2ccccc2)cc1 (centres unmarked) | ** (the MIC is 5-90 μg/mL) | ** (the MIC is 5-90 μg/mL) | ** (the MIC is 5-90 μg/mL) |
| – | – | – | CC(O)C1ON(Cc2cccc(C=Cc3ccccc3)c2)C(C(=O)NCCc2c[nH]c3ccccc23)N1CO (centres unmarked) | ** (the MIC is 5-90 μg/mL) | ** (the MIC is 5-90 μg/mL) | ** (the MIC is 5-90 μg/mL) |
| – | – | – | Cc1ccc(C#Cc2ccc(CN3OC(CN)CC3C(=O)NCCc3c[nH]c4ccccc34)cc2)cc1.Cl (centres unmarked) | ** (the MIC is 5-90 μg/mL) | ** (the MIC is 5-90 μg/mL) | ** (the MIC is 5-90 μg/mL) |
| – | – | – | CC(O)C1ON(Cc2ccc(-c3cc4ccccc4o3)cc2)C(C(=O)NCCc2c[nH]c3ccccc23)C1CO (centres unmarked) | ** (the MIC is 5-90 μg/mL) | ** (the MIC is 5-90 μg/mL) | ** (the MIC is 5-90 μg/mL) |
| 5 to 90 (≈ 9.6 to 173 µM) | 5 to 90 (≈ 9.6 to 173 µM) | 5 to 90 (≈ 9.6 to 173 µM) | Cc1ccc(C#Cc2ccc(CN3OC[C@H](CN(C)C)[C@H]3C(=O)NCCc3c[nH]c4ccccc34)cc2)cc1 | – | – | – |
| 5 to 90 | 5 to 90 | 5 to 90 | Cc1ccc(C#Cc2ccc(CN3O[C@@H]([C@@H](C)O)[C@@H](CN(C)C)[C@@H]3C(=O)NCCc3c[nH]c4ccccc34)cc2)cc1.Cl | – | – | – |
| 5 to 90 (≈ 10.1 to 182 µM) | 5 to 90 (≈ 10.1 to 182 µM) | 5 to 90 (≈ 10.1 to 182 µM) | Cc1ccc(C#Cc2ccc(CN3OC(CO)CC3C(=O)NCCc3c[nH]c4ccccc34)cc2)cc1 (centres unmarked) | – | – | – |
| – | – | – | CC(O)C1ON(Cc2ccc(-c3ccc(Oc4ccccc4)cc3)cc2)C(C(=O)NCCc2c[nH]c3ccccc23)C1CO (centres unmarked) | ** (the MIC is 5-90 μg/mL) | ** (the MIC is 5-90 μg/mL) | ** (the MIC is 5-90 μg/mL) |

| MIC [1] [mg/L] | MIC [3] [mg/L] | MIC [2] [mg/L] | Structure (SMILES) | MIC MRSA [1] | MIC PRSP [2] | MIC S. aureus [3] |
| --- | --- | --- | --- | --- | --- | --- |
| – | – | – | Cc1ccc(C#Cc2ccc(CN3OC(C(C)O)C(COC(=O)CN(C)C)C3C(=O)NCCc3c[nH]c4ccccc34)cc2)cc1 (centres unmarked) | ** (the MIC is 5-90 μg/mL) | ** (the MIC is 5-90 μg/mL) | – |
| 5 to 90 (≈ 11.2 to 202 µM) | 5 to 90 (≈ 11.2 to 202 µM) | – | CCCCCCCCN1O[C@@H]([C@H](C)O)[C@@H](CO)[C@H]1C(=O)NCCc1c[nH]c2ccccc12 | – | – | – |
| – | – | – | CC(O)C1ON(Cc2cccc(-c3ccc(Cl)cc3)c2)C(C(=O)NCCc2c[nH]c3ccccc23)C1CO (centres unmarked) | ** (the MIC is 5-90 μg/mL) | ** (the MIC is 5-90 μg/mL) | ** (the MIC is 5-90 μg/mL) |
| – | – | – | Cc1ccc(C#Cc2ccc(CN3OC(C(C)O)C(CO)C3CNCCc3c[nH]c4ccccc34)cc2)cc1 (centres unmarked) | ** (the MIC is 5-90 μg/mL) | * (the MIC is >90 μg/mL) | ** (the MIC is 5-90 μg/mL) |
| 5 to 90 (≈ 9.3 to 167 µM) | 5 to 90 (≈ 9.3 to 167 µM) | 5 to 90 (≈ 9.3 to 167 µM) | Cc1ccc(C#Cc2ccc(CC3O[C@H]([C@@H](C)O)[C@H](CO)[C@@H]3C(=O)NCCc3nc4ccccc4[nH]3)cc2)cc1 (some centres unmarked) | – | – | – |
| – | – | – | CC(O)C1ON(CCCCCCc2ccccc2)C(C(=O)NCCc2c[nH]c3ccccc23)C1CO (centres unmarked) | ** (the MIC is 5-90 μg/mL) | ** (the MIC is 5-90 μg/mL) | ** (the MIC is 5-90 μg/mL) |
| – | – | – | CC(O)C1ON(CCCCCCCCc2ccccc2)C(C(=O)NCCc2c[nH]c3ccccc23)C1CO (centres unmarked) | ** (the MIC is 5-90 μg/mL) | ** (the MIC is 5-90 μg/mL) | – |
| – | – | – | CC(O)C1ON(Cc2ccc(-c3ccccc3)cc2)C(C(=O)NCCc2c[nH]c3ccccc23)C1CO (centres unmarked) | ** (the MIC is 5-90 μg/mL) | * (the MIC is >90 μg/mL) | ** (the MIC is 5-90 μg/mL) |
| – | – | – | CC(O)C1ON(Cc2ccc(Oc3ccccc3)cc2)C(C(=O)NCCc2c[nH]c3ccccc23)C1CO (centres unmarked) | ** (the MIC is 5-90 μg/mL) | ** (the MIC is 5-90 μg/mL) | ** (the MIC is 5-90 μg/mL) |
| – | – | – | Cc1ccc(C#Cc2ccc(CN3OC(CN)CC3C(=O)NCCc3c[nH]c4ccccc34)cc2)cc1 (centres unmarked) | ** (the MIC is 5-90 μg/mL) | ** (the MIC is 5-90 μg/mL) | ** (the MIC is 5-90 μg/mL) |
| – | – | – | CC(O)C1ON(Cc2ccc(C#Cc3cccc(O)c3)cc2)C(C(=O)NCCc2c[nH]c3ccccc23)C1CO (centres unmarked) | ** (the MIC is 5-90 μg/mL) | ** (the MIC is 5-90 μg/mL) | ** (the MIC is 5-90 μg/mL) |
| – | – | – | CC(O)C1ON(Cc2ccc(C#Cc3ccc(C(=O)O)cc3)cc2)C(C(=O)NCCc2c[nH]c3ccccc23)C1CO (centres unmarked) | * (the MIC is >90 μg/mL) | * (the MIC is >90 μg/mL) | * (the MIC is >90 μg/mL) |
| – | – | – | CC(O)C1ON(Cc2ccc(-c3ccc(C(C)(C)C)cc3)cc2)C(C(=O)NCCc2c[nH]c3ccccc23)C1CO (centres unmarked) | * (the MIC is >90 μg/mL) | ** (the MIC is 5-90 μg/mL) | ** (the MIC is 5-90 μg/mL) |
| > 90 | > 90 | > 90 | Cc1ccc(C#Cc2ccc(CN3O[C@H]([C@@H](C)O)[C@H](CO)[C@@H]3C(=O)NCCN3CCCC3)cc2)cc1 | – | – | – |
| – | – | – | CCCCCCN1O[C@@H]([C@H](C)O)[C@@H](CO)[C@H]1C(=O)NCCc1c[nH]c2ccccc12 | * (the MIC is >90 μg/mL) | * (the MIC is >90 μg/mL) | * (the MIC is >90 μg/mL) |
| – | – | – | Cc1ccc(C#Cc2ccc(CN3OCC(CO)C3C(=O)NCCc3c[nH]c4ccccc34)cc2)cc1 (centres unmarked) [drawing 212] | *** (the MIC is less than 5 μg/mL) | ** (the MIC is 5-90 μg/mL) | – |

| Structure (SMILES) | MIC [1] [mg/L] | MIC [3] [mg/L] | MIC [2] [mg/L] | MIC MRSA [1] | MIC PRSP [2] | MIC S. aureus [3] |
| --- | --- | --- | --- | --- | --- | --- |
| Cc1ccc(C#Cc2ccc(CN3OC4CNCC4C3C(=O)NCCc3c[nH]c4ccccc34)cc2)cc1.Cl (centres unmarked) | 5 to 90 | 5 to 90 | – | – | – | – |
